Values of other authors in US5179079A, “Nasal formulation and intranasal administration therewith” (Novo Nordisk A/S, priority 1986, dated 1993).

Conditions: compared with intravenous administration

| Compound | blood levels after absorption from the nasal cavity |
| --- | --- |
| CC(=O)[C@H]1CC[C@H]2[C@@H]3CCC4=CC(=O)CC[C@]4(C)[C@H]3CC[C@]12C [progesterone] | blood levels almost equal to intraveneous administration |
| CC(C)NCC(O)COc1cccc2ccccc12 (centres unmarked) [propranolol] | blood levels almost equal to intraveneous administration |
